Results taken from patent US20250360505A1, “MICRO-BIOELECTROCHEMICAL CELL DEVICES AND METHODS OF DETECTING ELECTRON FLOWS” (Washington University, priority 2019, published 2025).

Tested on: Rhodopseudomonas palustris TIE-1 wild-type biofilms
Experiment: μ-BEC current density measurement of extracellular electron uptake (EEU) by surface-attached biofilms treated with photosynthetic ETC inhibitors
Type: cell-based
Conditions: working electrode poised at +100 mV vs. SHE, inhibitor concentration not given
[1] = illuminated (phototrophic) conditions

Compound	Current density (dark conditions)	Current density [1]
antimycin A	−3.46±1.80 nA cm^−2	12.46±1.34 nA cm^−2
N#CC(C#N)=NNc1cccc(Cl)c1 [CCCP, carbonyl cyanide m-chlorophenyl hydrazone]	−18.4±14.0 nA cm^−2	21.2±9.13 nA cm^−2
